Reference: the supplement of paper PMC11061612

Tests used:
Experiment in all cases: Bliss excess, mean over the matrix (fraction); higher = more synergy
[1] = test system: NCI-H2141 (Small Cell Lung Carcinoma)
Procedure, shortened: (§1)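 Cell lines in DMEM/F12 or RPMI with 10% FBS were plated in 1536-well plates, held 24 hours at 37°C, 5% CO2, then given two-drug dose matrices for 72 hours (DMSO typically 0.2%). Viability was read by CellTiter-Glo 2.0 luminescence and scaled as inhibition from 0 (vehicle wells) to 1 (blank wells). Combination Emax is the second-highest inhibition in the matrix; Bliss excess is observed combination effect minus expected EA + EB − EA·EB, EA and EB being single-agent effects.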

[2] = test system: CCK-81 (Colorectal Carcinoma)
Procedure, shortened: as §1

[3] = test system: NCI-H2066 (Squamous Cell Lung Carcinoma)
Procedure, shortened: as §1

Hs-445 (Non-Cancerous) = test system: Hs-445 (Non-Cancerous)
Procedure, shortened: as §1

[4] = test system: SK-MG-1 (Low Grade Glioma)
Procedure, shortened: as §1

[5] = test system: NCI-H1693 (Lung Adenocarcinoma)
Procedure, shortened: as §1

[6] = test system: SISO (Cervical Carcinoma)
Procedure, shortened: as §1

[7] = test system: JSC-1 (B-Cell Non-Hodgkin's Lymphoma)
Procedure, shortened: as §1

[8] = test system: A3-KAW (B-Cell Non-Hodgkin's Lymphoma)
Procedure, shortened: as §1

[9] = test system: SK-MES-1 (Squamous Cell Lung Carcinoma)
Procedure, shortened: as §1

[10] = test system: KARPAS-422 (B-Cell Non-Hodgkin's Lymphoma)
Procedure, shortened: as §1

[11] = test system: ECC10 (Gastric Carcinoma)
Procedure, shortened: as §1

[12] = test system: NCI-H1650 (Lung Adenocarcinoma)
Procedure, shortened: as §1

[13] = test system: CAPAN-2 (Pancreatic Carcinoma)
Procedure, shortened: as §1

U-2-OS (Osteosarcoma) = test system: U-2-OS (Osteosarcoma)
Procedure, shortened: as §1

[14] = test system: COLO-824 (Breast Carcinoma)
Procedure, shortened: as §1

[15] = test system: NCI-H1666 (Lung Adenocarcinoma)
Procedure, shortened: as §1

[16] = test system: A549 (Lung Adenocarcinoma)
Procedure, shortened: as §1

[17] = test system: BICR22 (Oral Cavity Carcinoma)
Procedure, shortened: as §1

LN-405 (Glioblastoma) = test system: LN-405 (Glioblastoma)
Procedure, shortened: as §1

Structure (SMILES)	Bliss excess [1]	Bliss excess [2]	Bliss excess [3]	Bliss excess (Hs-445 (Non-Cancerous))	Bliss excess [4]	Bliss excess [5]	Bliss excess [6]	Bliss excess [7]	Bliss excess [8]	Bliss excess [9]	Bliss excess [10]	Bliss excess [11]	Bliss excess [12]	Bliss excess [13]	Bliss excess (U-2-OS (Osteosarcoma))	Bliss excess [14]	Bliss excess [15]	Bliss excess [16]	Bliss excess [17]	Bliss excess (LN-405 (Glioblastoma))
Cc1c2c(nn1C)CSCc1cc(n(C)n1)CSc1cc(c3ccccc3c1)OCCCc1c(C(=O)O)n(C)c3c-2c(Cl)ccc13 [AZD5991] + C[C@@H](Nc1cc(F)cc(F)c1)c1cc(C(=O)N(C)C)cc2c(=O)cc(N3CCOCC3)oc12 [AZD8186] (first compound max 1 µM, 7x7, partner max 3 µM)	0.0257	0.0103	-0.0445	-0.0177	-0.0124	-0.0461	-0.0067	-0.0289	-0.0084	0.052	-0.0143	0.024	0.0221	0.023	-0.0073	0.0043	-0.0359	0.01	-0.0014	0.028
Cc1c2c(nn1C)CSCc1cc(n(C)n1)CSc1cc(c3ccccc3c1)OCCCc1c(C(=O)O)n(C)c3c-2c(Cl)ccc13 [AZD5991] + Cc1cc2ncnn2cc1Nc1ncc2c(n1)n(C1CCOCC1)c(=O)n2C [AZD7648] (first compound max 1 µM, 7x7, partner max 10 µM)	-0.0101	-0.0103	-0.0141	-0.0109	-0.0349	-0.026	-0.0221	-0.0499	-0.0101	-0.0471	-0.0008	-0.0409	-0.0408	0.0141	-0.0318	-0.0187	-0.0666	-0.111	0.0158	-0.0439
Cc1c2c(nn1C)CSCc1cc(n(C)n1)CSc1cc(c3ccccc3c1)OCCCc1c(C(=O)O)n(C)c3c-2c(Cl)ccc13 [AZD5991] + Cn1cnc2c(F)c(Nc3ccc(Br)cc3Cl)c(C(=O)NOCCO)cc21 [Selumetinib] (first compound max 1 µM, 7x7, partner max 3 µM)	0.0056	0.009	0.0459	0.0106	0.0044	0.0314	-0.0134	0.027	0.045	0.0132	-0.0157	0.0176	-0.0083	0.0129	0.0109	-0.0049	0.0499	-0.0344	0.127	0.003
C[C@@H]1COCCN1c1cc(C2([S@](C)(=N)=O)CC2)nc(-c2ccnc3[nH]ccc23)n1 [AZD6738] + O=C(c1cc(Cc2n[nH]c(=O)c3ccccc23)ccc1F)N1CCN(C(=O)C2CC2)CC1 [Olaparib] (first compound max 10 µM, 7x7, partner max 10 µM)	0.0682	-0.0049	-0.0682	-0.0067	0.0121	-0.0082	0.0221	-0.0254	-0.0085	-0.0324	-0.0539	0.0666	-0.0152	-0.0255	0.0257	-0.0314	0.0073	0.0273	0.003	0.0005
Cc1cc2ncnn2cc1Nc1ncc2c(n1)n(C1CCOCC1)c(=O)n2C [AZD7648] + C=CCn1c(=O)c2cnc(Nc3ccc(N4CCN(C)CC4)cc3)nc2n1-c1cccc(C(C)(C)O)n1 [AZD1775] (first compound max 10 µM, partner max 1 µM)	-0.0515	0.0285	-0.105	-0.0501	0.009	0.0055	-0.0005	-0.0166	0.0521	0.0167	-0.187	0.0498	0.0097	0.0132	0.0232	-0.0448	0.0305	-0.0718	-0.0323	-0.0402
Cc1cc2ncnn2cc1Nc1ncc2c(n1)n(C1CCOCC1)c(=O)n2C [AZD7648] + CCN(CCO)CCCOc1ccc2c(Nc3cc(CC(=O)Nc4cccc(F)c4)[nH]n3)ncnc2c1 [AZD2811] (first compound max 10 µM, 7x7, partner max 1 µM)	0.0625	0.0699	-0.0318	0.0394	0.0477	-0.0059	0.0662	0.0813	0.0762	-0.0011	-0.0417	-0.047	0.0142	-0.0525	0.0294	0.0116	-0.0087	-0.0025	0.0239	-0.0206
